≈ marks a conversion by molar mass, not a printed value.
Columns and labels:
[1] = tested on: wild AB zebrafish; assay: Zebrafish toxicity test; format: in vivo; settings: intravenous injection, 72 hours of treatment, samples in phosphate form
Method: A zebrafish toxicity test of the compounds in Table 1 is also tested. Randomly select wild AB zebrafish in a six-well plate, and inject each test sample at a dose of 50, 100, 150, 200, and 250 ng/tail intravenously. At the same time, a normal control group and a solvent control group (aqueous phosphoric acid) are set; During this experiment, the death of zebrafish is observed and recorded every day and the dead fish are removed. After 72 hours of treatment, the death of zebrafish is counted. Calculate the LD50 of each test product to zebrafish.
All samples are tested for zebrafish toxicity in phosphate form.

[2] = tested on: Clinical isolates 07-W3-45 (VRE); assay: In vitro antibacterial activity (MIC) against VRE; format: cell-based, Vancomycin-resistant Enterococcus; settings: for MIC Clinical isolates 07-W3-45 (VRE): clinically isolated drug-resistant strain 07-W3-45 from Shanghai Huashan Hospital
Method: (§1) An antibacterial activity of the compounds in Table 1 is determined in vitro, and a minimum inhibitory concentration (MIC) is read. The determination method refers to the method of the Pharmacopoeia of the People's Republic of China (2015 edition). The MRSA detection strain is purchased from ATCC, and the VRE detection strain is from the clinically isolated drug-resistant strain 07-W3-45 from Shanghai Huashan Hospital. Known antibiotic oritavancin (phosphate) is used for a reference drug.

[3] = tested on: ATCC43300 (MRSA); assay: In vitro antibacterial activity (MIC) against MRSA; format: cell-based, Methicillin-resistant Staphylococcus aureus; settings: for MIC ATCC43300 (MRSA): MRSA strain ATCC43300, method of Pharmacopoeia of the People's Republic of China (2015 edition)
Method: as §1

Compound | Zebrafish LD50 [1] | MIC Clinical isolates 07-W3-45 (VRE) [2] | MIC ATCC43300 (MRSA) [3] | MIC ([2]; Enterococcus, VRE, read-out: MIC Clinical isolates 07-W3-45 (VRE)) | MIC ([3]; Staphylococcus aureus, read-out: MIC ATCC43300 (MRSA))
CNC(CC(C)C)C(=O)NC1C(=O)NC(CC(N)=O)C(=O)NC2C(=O)NC3C(=O)NC(C(=O)NC(C(=O)O)c4cc(O)cc(O)c4-c4cc3ccc4O)C(OC3CC(C)(N)C(O)C(C)O3)c3ccc(c(Cl)c3)Oc3cc2cc(c3OC2OC(CO)C(O)C(O)C2OC2CC(C)(NCc3ccc(OCc4ccccc4)cc3)C(O)C(C)O2)Oc2ccc(cc2Cl)C1O (stereo not drawn) [Compound 1] | 139 ng/tail | 2 µg/mL (≈ 1.12 µM) | 0.5 µg/mL (≈ 0.28 µM) | – | –
CNC(CC(C)C)C(=O)NC1C(=O)NC(CC(N)=O)C(=O)NC2C(=O)NC3C(=O)NC(C(=O)NC(C(=O)O)c4cc(O)cc(O)c4-c4cc3ccc4O)C(OC3CC(C)(N)C(O)C(C)O3)c3ccc(c(Cl)c3)Oc3cc2cc(c3OC2OC(CO)C(O)C(O)C2OC2CC(C)(NCc3ccc(NCc4ccc(Cl)cc4)cc3)C(O)C(C)O2)Oc2ccc(cc2Cl)C1O (stereo not drawn) [Compound 19] | 117 ng/tail | 0.2 µg/mL (≈ 0.11 µM) | 0.25 µg/mL (≈ 0.137 µM) | – | –
CNC(CC(C)C)C(=O)NC1C(=O)NC(CC(N)=O)C(=O)NC2C(=O)NC3C(=O)NC(C(=O)NC(C(=O)O)c4cc(O)cc(O)c4-c4cc3ccc4O)C(OC3CC(C)(N)C(O)C(C)O3)c3ccc(c(Cl)c3)Oc3cc2cc(c3OC2OC(CO)C(O)C(O)C2OC2CC(C)(NCc3ccc(OCCc4ccc(OC)cc4)cc3)C(O)C(C)O2)Oc2ccc(cc2Cl)C1O (stereo not drawn) [Compound 12] | 188 ng/tail | 16 µg/mL (≈ 8.73 µM) | 0.5 µg/mL (≈ 0.273 µM) | – | –
CNC(CC(C)C)C(=O)NC1C(=O)NC(CC(N)=O)C(=O)NC2C(=O)NC3C(=O)NC(C(=O)NC(C(=O)O)c4cc(O)cc(O)c4-c4cc3ccc4O)C(OC3CC(C)(N)C(O)C(C)O3)c3ccc(c(Cl)c3)Oc3cc2cc(c3OC2OC(CO)C(O)C(O)C2OC2CC(C)(NCc3ccc(NCCc4ccc(OC)cc4)cc3)C(O)C(C)O2)Oc2ccc(cc2Cl)C1O (stereo not drawn) [Compound 23] | 192 ng/tail | 1 µg/mL (≈ 0.546 µM) | 0.5 µg/mL (≈ 0.273 µM) | – | –
CNC(CC(C)C)C(=O)NC1C(=O)NC(CC(N)=O)C(=O)NC2C(=O)NC3C(=O)NC(C(=O)NC(C(=O)O)c4cc(O)cc(O)c4-c4cc3ccc4O)C(OC3CC(C)(N)C(O)C(C)O3)c3ccc(c(Cl)c3)Oc3cc2cc(c3OC2OC(CO)C(O)C(O)C2OC2CC(C)(NCc3ccc(SCCc4ccc(Cl)cc4)cc3)C(O)C(C)O2)Oc2ccc(cc2Cl)C1O (stereo not drawn) [Compound 16] | 72 ng/tail | 0.5 µg/mL (≈ 0.27 µM) | 0.032 µg/mL (≈ 0.0173 µM) | – | –
CNC(CC(C)C)C(=O)NC1C(=O)NC(CC(N)=O)C(=O)NC2C(=O)NC3C(=O)NC(C(=O)NC(C(=O)O)c4cc(O)cc(O)c4-c4cc3ccc4O)C(OC3CC(C)(N)C(O)C(C)O3)c3ccc(c(Cl)c3)Oc3cc2cc(c3OC2OC(CO)C(O)C(O)C2OC2CC(C)(NCc3ccc(NCCc4ccc(Cl)cc4)cc3)C(O)C(C)O2)Oc2ccc(cc2Cl)C1O (stereo not drawn) [Compound 21] | 102 ng/tail | 0.5 µg/mL (≈ 0.272 µM) | 0.016 µg/mL (≈ 0.00871 µM) | – | –
CNC(CC(C)C)C(=O)NC1C(=O)NC(CC(N)=O)C(=O)NC2C(=O)NC3C(=O)NC(C(=O)NC(C(=O)O)c4cc(O)cc(O)c4-c4cc3ccc4O)C(OC3CC(C)(N)C(O)C(C)O3)c3ccc(c(Cl)c3)Oc3cc2cc(c3OC2OC(CO)C(O)C(O)C2OC2CC(C)(NCc3ccc(OCCc4ccc(Cl)cc4)cc3)C(O)C(C)O2)Oc2ccc(cc2Cl)C1O (stereo not drawn) [Compound 8] | 150 ng/tail | 1 µg/mL (≈ 0.544 µM) | 0.5 µg/mL (≈ 0.272 µM) | – | –
CNC(CC(C)C)C(=O)NC1C(=O)NC(CC(N)=O)C(=O)NC2C(=O)NC3C(=O)NC(C(=O)NC(C(=O)O)c4cc(O)cc(O)c4-c4cc3ccc4O)C(OC3CC(C)(N)C(O)C(C)O3)c3ccc(c(Cl)c3)Oc3cc2cc(c3OC2OC(CO)C(O)C(O)C2OC2CC(C)(NCc3ccc(NCCCc4ccc(Cl)cc4)cc3)C(O)C(C)O2)Oc2ccc(cc2Cl)C1O (stereo not drawn) [Compound 25] | 97 ng/tail | 0.25 µg/mL (≈ 0.135 µM) | 0.064 µg/mL (≈ 0.0346 µM) | – | –
CNC(CC(C)C)C(=O)NC1C(=O)NC(CC(N)=O)C(=O)NC2C(=O)NC3C(=O)NC(C(=O)NC(C(=O)O)c4cc(O)cc(O)c4-c4cc3ccc4O)C(OC3CC(C)(N)C(O)C(C)O3)c3ccc(c(Cl)c3)Oc3cc2cc(c3OC2OC(CO)C(O)C(O)C2OC2CC(C)(NCc3ccc(NCc4ccc(C)cc4)cc3)C(O)C(C)O2)Oc2ccc(cc2Cl)C1O (stereo not drawn) [Compound 18] | 128 ng/tail | 1 µg/mL (≈ 0.555 µM) | 0.5 µg/mL (≈ 0.278 µM) | – | –
CNC(CC(C)C)C(=O)NC1C(=O)NC(CC(N)=O)C(=O)NC2C(=O)NC3C(=O)NC(C(=O)NC(C(=O)O)c4cc(O)cc(O)c4-c4cc3ccc4O)C(OC3CC(C)(N)C(O)C(C)O3)c3ccc(c(Cl)c3)Oc3cc2cc(c3OC2OC(CO)C(O)C(O)C2OC2CC(C)(NCc3ccc(OCCc4ccc(Br)cc4)cc3)C(O)C(C)O2)Oc2ccc(cc2Cl)C1O (stereo not drawn) [Compound 9] | 129 ng/tail | 1 µg/mL (≈ 0.531 µM) | 0.25 µg/mL (≈ 0.133 µM) | – | –
CN[C@H](CC(C)C)C(=O)N[C@H]1C(=O)N[C@@H](CC(N)=O)C(=O)N[C@H]2C(=O)N[C@H]3C(=O)N[C@H](C(=O)N[C@H](C(=O)O)c4cc(O)cc(O)c4-c4cc3ccc4O)[C@H](O[C@H]3C[C@](C)(N)[C@@H](O)[C@H](C)O3)c3ccc(c(Cl)c3)Oc3cc2cc(c3O[C@@H]2O[C@H](CO)[C@@H](O)[C@H](O)[C@H]2O[C@H]2C[C@](C)(NCc3ccc(-c4ccc(Cl)cc4)cc3)[C@@H](O)[C@H](C)O2)Oc2ccc(cc2Cl)[C@H]1O [Orivancin, oritavancin, reference compound] | 89.4 ng/tail | – | – | 2 µg/mL (≈ 1.12 µM) | 0.5 µg/mL (≈ 0.279 µM)
CNC(CC(C)C)C(=O)NC1C(=O)NC(CC(N)=O)C(=O)NC2C(=O)NC3C(=O)NC(C(=O)NC(C(=O)O)c4cc(O)cc(O)c4-c4cc3ccc4O)C(OC3CC(C)(N)C(O)C(C)O3)c3ccc(c(Cl)c3)Oc3cc2cc(c3OC2OC(CO)C(O)C(O)C2OC2CC(C)(NCc3ccc(NCc4ccccc4)cc3)C(O)C(C)O2)Oc2ccc(cc2Cl)C1O (stereo not drawn) [Compound 17] | 139 ng/tail | 1 µg/mL (≈ 0.559 µM) | 0.5 µg/mL (≈ 0.28 µM) | – | –
CNC(CC(C)C)C(=O)NC1C(=O)NC(CC(N)=O)C(=O)NC2C(=O)NC3C(=O)NC(C(=O)NC(C(=O)O)c4cc(O)cc(O)c4-c4cc3ccc4O)C(OC3CC(C)(N)C(O)C(C)O3)c3ccc(c(Cl)c3)Oc3cc2cc(c3OC2OC(CO)C(O)C(O)C2OC2CC(C)(NCc3ccc(OCc4ccc(Cl)cc4)cc3)C(O)C(C)O2)Oc2ccc(cc2Cl)C1O (stereo not drawn) [Compound 5] | 180 ng/tail | 2 µg/mL (≈ 1.1 µM) | 0.5 µg/mL (≈ 0.274 µM) | – | –
CNC(CC(C)C)C(=O)NC1C(=O)NC(CC(N)=O)C(=O)NC2C(=O)NC3C(=O)NC(C(=O)NC(C(=O)O)c4cc(O)cc(O)c4-c4cc3ccc4O)C(OC3CC(C)(N)C(O)C(C)O3)c3ccc(c(Cl)c3)Oc3cc2cc(c3OC2OC(CO)C(O)C(O)C2OC2CC(C)(NCc3ccc(NCCCc4ccccc4)cc3)C(O)C(C)O2)Oc2ccc(cc2Cl)C1O (stereo not drawn) [Compound 24] | 153 ng/tail | 1 µg/mL (≈ 0.551 µM) | 0.5 µg/mL (≈ 0.275 µM) | – | –
CNC(CC(C)C)C(=O)NC1C(=O)NC(CC(N)=O)C(=O)NC2C(=O)NC3C(=O)NC(C(=O)NC(C(=O)O)c4cc(O)cc(O)c4-c4cc3ccc4O)C(OC3CC(C)(N)C(O)C(C)O3)c3ccc(c(Cl)c3)Oc3cc2cc(c3OC2OC(CO)C(O)C(O)C2OC2CC(C)(NCc3ccc(OCCc4cccc(Br)c4)cc3)C(O)C(C)O2)Oc2ccc(cc2Cl)C1O (stereo not drawn) [Compound 10] | 113 ng/tail | 1 µg/mL (≈ 0.531 µM) | 0.125 µg/mL (≈ 0.0664 µM) | – | –
CNC(CC(C)C)C(=O)NC1C(=O)NC(CC(N)=O)C(=O)NC2C(=O)NC3C(=O)NC(C(=O)NC(C(=O)O)c4cc(O)cc(O)c4-c4cc3ccc4O)C(OC3CC(C)(N)C(O)C(C)O3)c3ccc(c(Cl)c3)Oc3cc2cc(c3OC2OC(CO)C(O)C(O)C2OC2CC(C)(NCc3ccc(OCCc4ccc(C(F)(F)F)cc4)cc3)C(O)C(C)O2)Oc2ccc(cc2Cl)C1O (stereo not drawn) [Compound 11] | 99 ng/tail | 0.5 µg/mL (≈ 0.267 µM) | 0.064 µg/mL (≈ 0.0342 µM) | – | –
CNC(CC(C)C)C(=O)NC1C(=O)NC(CC(N)=O)C(=O)NC2C(=O)NC3C(=O)NC(C(=O)NC(C(=O)O)c4cc(O)cc(O)c4-c4cc3ccc4O)C(OC3CC(C)(N)C(O)C(C)O3)c3ccc(c(Cl)c3)Oc3cc2cc(c3OC2OC(CO)C(O)C(O)C2OC2CC(C)(NCc3ccc(OCCc4ccc(F)cc4)cc3)C(O)C(C)O2)Oc2ccc(cc2Cl)C1O (stereo not drawn) [Compound 7] | 97 ng/tail | 1 µg/mL (≈ 0.549 µM) | 0.5 µg/mL (≈ 0.275 µM) | – | –
CNC(CC(C)C)C(=O)NC1C(=O)NC(CC(N)=O)C(=O)NC2C(=O)NC3C(=O)NC(C(=O)NC(C(=O)O)c4cc(O)cc(O)c4-c4cc3ccc4O)C(OC3CC(C)(N)C(O)C(C)O3)c3ccc(c(Cl)c3)Oc3cc2cc(c3OC2OC(CO)C(O)C(O)C2OC2CC(C)(NCc3ccc(NCCc4ccc(C(F)(F)F)cc4)cc3)C(O)C(C)O2)Oc2ccc(cc2Cl)C1O (stereo not drawn) [Compound 22] | 142 ng/tail | 0.25 µg/mL (≈ 0.134 µM) | 0.032 µg/mL (≈ 0.0171 µM) | – | –
